# Laboratory results: patent US7413894B2, “TAG-1 and TAG-2 proteins and uses thereof” (University of Virginia Patent Foundation, priority 2003, dated 2008)
# What was measured:
# [1] = test system: C1R-A3 targets for lysis by VMM18 CTL; experiment: CTL epitope reconstitution assay (four-hour 51Cr-release); format: cell-based; conditions: active at concentrations as low as
# Experimental: VMM18-specific CTL have been described previously (Skipper et al., 1996, J Immunol 157, 5027-5033). CTL were expanded in bulk culture using anti-CD3 antibody (Greenberg and Cheever, 1985, Surv Immunol Res 4, 283-296) and cryopreserved in aliquots of 1-5×10^7 cells for use in epitope reconstitution assays.
# Aliquots of each RP-HPLC fraction were tested for the presence of peptides that could sensitize C1R-A3 targets for lysis by VMM18 CTL in standard four-hour 51Cr-release assays as previously described (Hogan et al., 1998, Cancer Res 58, 5144-5150).
# [2] = target: T1, class I MHC molecule, HLA-A3 (Homo sapiens, UniProt P04439); experiment: Isolation of HLA-A3 associated peptides (immunoaffinity purification from VMM18 tumor cells); format: binding
# T1 construct: endogenous in cells; host or cells: VMM18 melanoma tumor cells
# T1 sequence (P04439 25-365): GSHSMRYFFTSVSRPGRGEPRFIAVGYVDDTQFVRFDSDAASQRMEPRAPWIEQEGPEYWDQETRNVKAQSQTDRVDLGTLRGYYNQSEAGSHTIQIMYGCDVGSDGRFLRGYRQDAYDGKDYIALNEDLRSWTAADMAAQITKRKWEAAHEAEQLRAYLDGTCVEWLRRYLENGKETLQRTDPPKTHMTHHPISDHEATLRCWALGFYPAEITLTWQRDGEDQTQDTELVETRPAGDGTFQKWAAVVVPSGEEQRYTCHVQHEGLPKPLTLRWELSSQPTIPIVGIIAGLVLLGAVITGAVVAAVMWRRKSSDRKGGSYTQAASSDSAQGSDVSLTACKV
# T1 sequence (P61769 21-119 partner): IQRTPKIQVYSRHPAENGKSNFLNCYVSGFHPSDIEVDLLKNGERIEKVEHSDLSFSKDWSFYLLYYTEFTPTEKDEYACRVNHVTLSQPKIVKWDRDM
# Experimental: Immunoaffinity purification of class I MHC molecules from aliquots of 6-8×10^10 VMM18 tumor cells was performed as described (Hogan et al., 1998, Cancer Res 58, 5144-5150), except that the HLA-A3-specific monoclonal antibody GAP-A3, bound to protein A-Sepharose, was used to isolate the HLA-A3 molecules.
# Peptide extracts were fractionated by RP-HPLC using an Applied Biosystems model 140B system. The extracts were concentrated by vacuum centrifugation and injected onto a Higgins (Mountain View, Calif.) C18 HAISIL column (2.1 mm×4 cm, 300 Å, 5 μm). The peptides were eluted with a gradient of acetonitrile/0.085% trifluoroacetic acid (TFA)* in 0.1% TFA/water, with the concentration of acetonitrile increasing from 0 to 9% (0 to 5 min), 9 to 36% (5 to 55 min), and 36 to 60% (55 to 62 min). Second dimension fractionations of selected first dimension (TFA) fractions were accomplished using the same gradient but with the substitution of heptafluorobutyric acid (HFBA) for TFA. A third dimension of RP-HPLC was achieved using an Eldex (Napa, Calif.) MicroPro pump, a homemade C18 microcapillary column and an Applied Biosystems model 785A UV absorbance detector. The column was made by packing a 27-cm bed of 10-μm C18 particles in a section of 285 μm o.d.×75 μm i.d. fused silica. […] In all RP-HPLC experiments, peptides were detected by monitoring UV absorbance at 214 nm.
Sequence,concentration at which the synthetic peptide is active in sensitizing C1R-A3 targets for lysis by VMM18 CTL [1],binding to HLA-A3 [2]
RLSNRLLLR (listed as Homo sapiens),≤ 10 pM,"binds to the class I MHC molecule, HLA-A3"
SQNFPGSQK (listed as Homo sapiens),≤ 10 pM,–
